# Source: patent US20190262330A1, “Method of Treating Hepatocellular Carcinoma Using N-(4-(6,7-dimethoxyquinolin-4-yloxy)phenyl)-N′-(4-fluorophenyl)cyclopropane-1,1-dicarboxamide, (2S)-hydroxybutanedioate” (Exelixis, Inc., priority 2017, published 2019)
# Key:
# [1] = test system: patients who have not received prior systemic therapy; conditions: in vivo; cited from earlier work
# [2] = test system: patients with advanced renal cell carcinoma; experiment: CABOSUN trial, safety; assay type: in vivo, human
# [3] = test system: advanced RCC without prior therapy; experiment: CABOSUN trial, efficacy; assay type: in vivo, human; conditions: ITT
# From the text: All patients were required to have intermediate or poor risk disease as defined by the International Metastatic RCC Database Consortium (IMDC) risk group categories. Patients were stratified by IMDC risk group and presence of bone metastases (yes/no).
# The major efficacy outcome measure was progression-free survival (PFS) by a retrospective blinded independent radiology review committee (BIRC).
# [4] = Solubility in aqueous media; assay type: physicochemical
# [5] = test system: advanced RCC after prior anti-angiogenic therapy; experiment: METEOR trial, efficacy; assay type: in vivo, human
# From the text: Patients were stratified by the number of prior VEGFR tyrosine kinase inhibitors (TKIs) and Memorial Sloan Kettering Cancer Center (MSKCC) Risk Group. […] The majority of the patients were male (75%), with a median age of 62 years. Sixty-nine percent (69%) received only one prior anti-angiogenic therapy. […] The main efficacy outcome measure was progression-free survival (PFS) assessed by a blinded independent radiology review committee among the first 375 subjects randomized. Other efficacy endpoints were objective response rate (ORR) and overall survival (OS) in the Intent-to-Treat (ITT) population. Tumor assessments were conducted every 8 weeks for the first 12 months, then every 12 weeks thereafter. Patients received treatment until disease progression or experiencing unacceptable toxicity. Patients on both arms who had disease progression could continue treatment at the discretion of the investigator.
# [6] = test system: patients with advanced renal cell carcinoma; experiment: METEOR trial, safety; assay type: in vivo, human
# From the text: Patients on both arms who had disease progression could continue treatment at the discretion of the investigator [see Clinical Studies (14)].
# [7] = test system: sorafenib-tolerant patients with hepatocellular carcinoma; conditions: in vivo; cited from earlier work
smiles,measurement,setting,value
CNC(=O)c1cc(Oc2ccc(NC(=O)Nc3ccc(Cl)c(C(F)(F)F)c3)cc2)ccn1 [sorafenib],Objective responses,[1],very few objective responses
same,Overall survival,[1],improves overall survival
"CCN(CC)CCNC(=O)c1c(C)[nH]c(/C=C2\C(=O)Nc3ccc(F)cc32)c1C [Sunitinib, sunitinib]",Deaths within 30 days of treatment,[2]; CABOSUN,6 deaths
same,"ALT increased, Grade 3-4","[2]; human, in vivo",0%
same,"AST increased, Grade 3-4","[2]; human, in vivo",3%
same,"Anemia, Grade 3-4","[2]; human, in vivo",3%
same,"Angiopathy, Grade 3-4","[2]; human, in vivo",1%
same,"Arthralgia, Grade 3-4","[2]; human, in vivo",0%
same,"Back pain, Grade 3-4","[2]; human, in vivo",0%
same,"Blood creatinine increased, Grade 3-4","[2]; human, in vivo",3%
same,"Bone pain, Grade 3-4","[2]; human, in vivo",1%
same,"Confusional state, Grade 3-4","[2]; human, in vivo",1%
same,"Constipation, Grade 3-4","[2]; human, in vivo",0%
same,"Decreased appetite, Grade 3-4","[2]; human, in vivo",1%
same,"Dehydration, Grade 3-4","[2]; human, in vivo",1%
same,"Depression, Grade 3-4","[2]; human, in vivo",0%
same,"Diarrhea, Grade 3-4","[2]; human, in vivo",11%
same,"Dysphonia, Grade 3-4","[2]; human, in vivo",0%
same,"Dyspnea, Grade 3-4","[2]; human, in vivo",6%
same,"Fatigue, Grade 3-4","[2]; human, in vivo",17%
same,"Hyperkalemia, Grade 3-4","[2]; human, in vivo",3%
same,"Hypertension, Grade 3-4","[2]; human, in vivo",21%
same,"Hypocalcemia, Grade 3-4","[2]; human, in vivo",0%
same,"Hypomagnesemia, Grade 3-4","[2]; human, in vivo",0%
same,"Hyponatremia, Grade 3-4","[2]; human, in vivo",8%
same,"Hypophosphatemia, Grade 3-4","[2]; human, in vivo",7%
same,"Hypotension, Grade 3-4","[2]; human, in vivo",1%
same,"Lung infection, Grade 3-4","[2]; human, in vivo",0%
same,"Lymphocyte count decreased, Grade 3-4","[2]; human, in vivo",6%
same,"Nausea, Grade 3-4","[2]; human, in vivo",4%
same,"Pain in extremity, Grade 3-4","[2]; human, in vivo",0%
same,"Pain, Grade 3-4","[2]; human, in vivo",0%
same,"Palmar-plantar erythrodysesthesia, Grade 3-4","[2]; human, in vivo",4%
same,Patients discontinued due to an adverse reaction,"[2]; human, in vivo",22%
same,Patients with any Grade 3-4 Adverse Reaction,"[2]; human, in vivo",65%
same,Patients with dose held,"[2]; human, in vivo",71%
same,Patients with dose reduced,"[2]; human, in vivo",35%
same,"Platelet count decreased, Grade 3-4","[2]; human, in vivo",11%
same,"Proteinuria, Grade 3-4","[2]; human, in vivo",1%
same,"Renal failure acute, Grade 3-4","[2]; human, in vivo",1%
same,"Skin ulcer, Grade 3-4","[2]; human, in vivo",0%
same,"Stomatitis, Grade 3-4","[2]; human, in vivo",6%
same,"Syncope, Grade 3-4","[2]; human, in vivo",0%
same,"Vomiting, Grade 3-4","[2]; human, in vivo",3%
same,"Weight decreased, Grade 3-4","[2]; human, in vivo",0%
same,Overall survival events,[3],(60) %
same,"Confirmed ORR, partial responses only",[3]; BIRC,9%
same,Median PFS,[3]; BIRC,5.3 months
same,Progression-free survival events,[3]; BIRC,(63) %
COc1cc2nccc(Oc3ccc(NC(=O)C4(C(=O)Nc5ccc(F)cc5)CC4)cc3)c2cc1OC.O=C(O)C[C@H](O)C(=O)O [Cabozantinib (S)-malate salt],Solubility,[4],practically insoluble
"CO[C@H]1C[C@@H]2CC[C@@H](C)[C@@](O)(O2)C(=O)C(=O)N2CCCC[C@H]2C(=O)O[C@H]([C@H](C)C[C@@H]2CC[C@@H](OCCO)[C@H](OC)C2)CC(=O)[C@H](C)/C=C(\C)[C@@H](O)[C@@H](OC)C(=O)[C@H](C)C[C@H](C)/C=C/C=C/C=C/1C [Everolimus, everolimus]","Confirmed ORR, partial responses only",[5]; ITT,3%
same,Median PFS (95% CI),[5]; first 375 randomized,"3.8 (3.7, 5.4) months"
same,Adverse reactions leading to study treatment being held,[6]; METEOR,59%
same,Adverse reactions leading to study treatment discontinuation,[6]; METEOR,10%
same,"Palmar-plantar erythrodysesthesia, All Grades",[6]; METEOR adverse reaction,6%
same,"Palmar-plantar erythrodysesthesia, Grade 3-4",[6]; METEOR adverse reaction,<1%
CNC(=O)c1cc(Oc2ccc(NC(=O)Nc3ccc(Cl)c(C(F)(F)F)c3)c(F)c2)ccn1 [Regorafenib],Overall survival compared with placebo,[7],improved overall survival
